Test results as given in US20170037028A1 (BAYER PHARMA AKTIENGESELLSCHAFT, priority 2013, published 2017).

target: T1, GLUT1 (Homo sapiens, UniProt P11166); assay: Indirect measurement of GLUT1 activity by quantification of intracellular ATP levels (glucose induced ATP increase); assay type: cell-based; design: endogenous in cells; host or cells: DLD1 or CHO-K1; conditions: DLD1 cells; 0.1 mM glucose, 1 μM Rotenone, 15 min; CellTiter-Glo ATP readout; IC50 values standardized to cytochalasin B IC50 values; read-out: IC50 regarding glucose induced ATP increase (GLUT1 inhibition)
T1 sequence (P11166 1-492): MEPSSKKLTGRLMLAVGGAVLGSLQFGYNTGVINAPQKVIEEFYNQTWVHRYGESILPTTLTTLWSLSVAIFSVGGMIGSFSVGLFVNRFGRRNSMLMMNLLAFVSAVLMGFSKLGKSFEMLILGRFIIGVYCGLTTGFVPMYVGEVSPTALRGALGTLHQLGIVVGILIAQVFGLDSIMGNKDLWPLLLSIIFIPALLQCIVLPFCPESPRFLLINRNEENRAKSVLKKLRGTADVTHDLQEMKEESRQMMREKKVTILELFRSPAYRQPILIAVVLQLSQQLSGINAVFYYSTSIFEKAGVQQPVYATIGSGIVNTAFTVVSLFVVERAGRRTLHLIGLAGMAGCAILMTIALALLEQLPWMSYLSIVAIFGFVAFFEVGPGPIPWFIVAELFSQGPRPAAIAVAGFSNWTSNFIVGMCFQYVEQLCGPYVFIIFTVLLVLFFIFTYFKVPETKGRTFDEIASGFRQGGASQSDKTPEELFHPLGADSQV
How it was run: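 Intracellular ATP was measured by CellTiter-Glo luminescence as an indirect readout of transport: glucose-driven for GLUT1, fructose-driven for GLUT2. DLD1 or CHO-K1 cells were used alongside an oxidative phosphorylation inhibitor. Beforehand, cells were held overnight in glucose-free 1% FCS medium to deplete ATP.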

SMILES | IC50 [nM]
Cc1ccc2nc(C(N)=O)cc(C(=O)Nc3c(C(F)(F)F)nn(Cc4ccc(C#N)cc4)c3C)c2c1 [Example 366, N^4-[1-(4-cyanobenzyl)-5-methyl-3-(trifluoromethyl)-1H-pyrazol-4-yl]-6-methylquinoline-2,4-dicarboxamide] | 7
Cc1nn(CCc2ccc(F)cc2)c(C)c1NC(=O)c1cc(C(F)(F)F)nc2ccc(Br)cc12 [Example 1129] | 86.6
Cc1c(NC(=O)c2cc(C(N)=O)nc3cc(F)ccc23)c(C(F)(F)F)nn1Cc1cc(C#N)no1 [Example 1669] | 88.8

same assay, conditions: read-out: IC50 regarding glucose induced ATP increase (GLUT1 inhibition)

SMILES | IC50 [nM]
Cc1ccc2nc(C)cc(C(=O)Nc3c(C(C)C)nn(Cc4ccc(F)cc4)c3C(C)C)c2c1 [Example 1356] | > 13000
Cc1nn(Cc2ccc(C(=O)Nc3ccccc3Cl)cc2)c(C)c1NC(=O)c1cc(C(F)(F)F)nc2ccc(Br)cc12 [Example 1040] | 6.7
Cc1c(NC(=O)c2cc(C(F)(F)F)nc3cc(F)c(F)cc23)c(C(F)(F)F)nn1Cc1ccc(F)c(F)c1 [Example 207, N-[1-(3,4-difluorobenzyl)-5-methyl-3-(trifluoromethyl)-1H-pyrazol-4-yl]-6,7-difluoro-2-(trifluoromethyl)quinoline-4-carboxamide] | 688
Cc1nn(Cc2c(F)cccc2F)c(C)c1NC(=O)c1cc(C(F)(F)F)nc2ccc(Br)cc12 [Example 13, 6-bromo-N-[1-(2,6-difluorobenzyl)-3,5-dimethyl-1H-pyrazol-4-yl]-2-(trifluoromethyl)quinoline-4-carboxamide] | 11.3
Cc1nn(Cc2ncccc2C#N)c(C)c1NC(=O)c1cc(C(N)=O)nc2cc(F)ccc12 [Example 1409] | 11.1
COc1cccc(Cn2nc(C(F)(F)F)c(NC(=O)c3cc(C(N)=O)nc4cccc(F)c34)c2C)c1 [Example 1449] | 18.7
Cc1c(NC(=O)c2cc(C(N)=O)nc3cc(F)c(Cl)cc23)c(C(F)(F)F)nn1Cc1cc(F)ccc1C#N [Example 1655] | 238
CCc1cc(Cn2nc(C)c(NC(=O)c3cc(C(N)=O)nc4ccccc34)c2C)on1 [Example 1531] | 37.6
Cc1nn(CC2CCNCC2)c(C)c1NC(=O)c1cc(C(F)(F)F)nc2ccc(Br)cc12 [Example 1222] | 883
Cc1nn(C(C)c2ccccc2)c(C)c1NC(=O)c1cc(C(F)(F)F)nc2ccc(Br)cc12 (racemic) [Example 1360] | 21.6
Cc1nn(Cc2ccc(C(=O)NCCO)cc2)c(C)c1NC(=O)c1cc(C(F)(F)F)nc2ccc(Br)cc12 [Example 139, 6-bromo-N-(1-{4-[(2-hydroxyethyl)carbamoyl]benzyl}-3,5-dimethyl-1H-pyrazol-4-yl)-2-(trifluoromethyl)quinoline-4-carboxamide] | 31.7
Cc1ccc2nc(C)cc(C(=O)Nc3c(C)nn(Cc4cc(F)ccc4F)c3C)c2c1 [Example 1281] | 5190
Cc1nn(Cc2ccc(F)cc2)c(C)c1NC(=O)c1cc(C(F)(F)F)nc2cc(Br)ccc12 [Example 88, 7-bromo-N-[1-(4-fluorobenzyl)-3,5-dimethyl-1H-pyrazol-4-yl]-2-(trifluoromethyl)quinoline-4-carboxamide] | 281
Cc1c(NC(=O)c2cc(C(N)=O)nc3cc(F)ccc23)c(C(F)(F)F)nn1Cc1ccc(CC(F)(F)F)cc1 [Example 1714] | 6.4
Cc1nn(Cc2ccc(S(C)(=O)=O)cc2)c(C)c1NC(=O)c1cc(C(N)=O)nc2cc(F)c(Cl)cc12 [Example 1485] | 5.3
Cc1nn(Cc2ccc(F)cc2)c(C)c1NC(=O)c1ccnc2ccccc12 [Example 211, N-[1-(4-fluorobenzyl)-3,5-dimethyl-1H-pyrazol-4-yl]quinoline-4-carboxamide] | 957
Cc1nn(Cc2ccc(C(=O)N3CCN(CCO)CC3)cc2)c(C)c1NC(=O)c1cc(C(F)(F)F)nc2ccc(Br)cc12 [Example 1192] | 339

SMILES | IC50 [nM]
Cc1nn(CC2CCN(S(=O)(=O)c3ccccc3)CC2)c(C)c1NC(=O)c1cc(C(N)=O)nc2ccccc12 [Example 1519] | 644
Cc1nn(Cc2ccc(C(F)(F)F)cc2)c(C)c1NC(=O)c1cc(C(N)=O)nc2cc(F)c(Cl)cc12 [Example 1598] | 1.4
Cc1nn(Cc2ccc(C#N)cc2)c(C)c1NC(=O)c1cc(C(N)=O)nc2ccccc12 [Example 259, N^4-[1-(4-cyanobenzyl)-3,5-dimethyl-1H-pyrazol-4-yl]quinoline-2,4-dicarboxamide] | 9.7
Cc1nn(Cc2ccc(C(=O)NCC3CC3)cn2)c(C)c1NC(=O)c1cc(C(F)(F)F)nc2ccc(Br)cc12 [Example 1073] | 21.7
Cc1c(NC(=O)c2cc(C(N)=O)nc3ccc(NCCN(C)C)cc23)c(C(F)(F)F)nn1Cc1ccc(C#N)cc1 [Example 1434] | 51.3
Cc1c(NC(=O)c2cc(C(N)=O)nc3ccccc23)c(C(F)(F)F)nn1Cc1ccc(F)cc1 [Example 130, N^4-[1-(4-fluorobenzyl)-5-methyl-3-(trifluoromethyl)-1H-pyrazol-4-yl]quinoline-2,4-dicarboxamide] | 4.6
CC(=O)c1cccc(Cn2nc(C(F)(F)F)c(NC(=O)c3cc(C(N)=O)nc4ccccc34)c2C)c1 [Example 1622] | 50.1
Cc1nn(Cc2ccc(C#N)nc2)c(C)c1NC(=O)c1cc(C(N)=O)nc2ccc(Br)cc12 [Example 293, 6-bromo-N^4-{1-[(6-cyanopyridin-3-yl)methyl]-3,5-dimethyl-1H-pyrazol-4-yl}quinoline-2,4-dicarboxamide] | 1
CNC(=O)Cc1ccc(Cn2nc(C)c(NC(=O)c3cc(C(F)(F)F)nc4ccc(Br)cc34)c2C)cc1 [Example 153, 6-bromo-N-(3,5-dimethyl-1-{4-[2-(methylamino)-2-oxoethyl]benzyl}-1H-pyrazol-4-yl)-2-(trifluoromethyl)quinoline-4-carboxamide] | 95.8
Cc1nn(Cc2ccc(C#N)cc2)c(C)c1NC(=O)c1cc(C(=O)N2CCC2)nc2cc(F)ccc12 [Example 1428] | 12.3
Cc1cc(Cn2nc(C(F)(F)F)c(NC(=O)c3cc(C(N)=O)nc4ccccc34)c2C)on1 [Example 1543] | 112
Cc1ccccc1Cn1nc(C(F)(F)F)c(NC(=O)c2cc(C(N)=O)nc3ccccc23)c1C [Example 1494] | 8.3
Cc1nn(Cc2ccc(F)cc2)c(C)c1NC(=O)c1cc(C(F)(F)F)nc2cc(F)c(Cl)cc12 [Example 121, 6-chloro-7-fluoro-N-[1-(4-fluorobenzyl)-3,5-dimethyl-1H-pyrazol-4-yl]-2-(trifluoromethyl)quinoline-4-carboxamide] | 1.7
Cc1nn(Cc2noc(C(=O)N(C)C)n2)c(C)c1NC(=O)c1cc(C(N)=O)nc2ccccc12 [Example 1521] | 1670
Cc1nn(Cc2ccc(C(=O)Nc3ccccc3)cc2)c(C)c1NC(=O)c1cc(C(F)(F)F)nc2ccc(Br)cc12 [Example 134, 6-bromo-N-{3,5-dimethyl-1-[4-(phenylcarbamoyl)benzyl]-1H-pyrazol-4-yl}-2-(trifluoromethyl)quinoline-4-carboxamide] | 6.6
Cc1nn(Cc2ccc(C(=O)NC(CO)(CO)CO)cc2)c(C)c1NC(=O)c1cc(C(F)(F)F)nc2ccc(Br)cc12 [Example 1136] | 98.2
Cc1nn(Cc2ccccc2O)c(C)c1NC(=O)c1cc(C(F)(F)F)nc2c(Cl)cc(Cl)cc12 [Example 1071] | 21
